Assay results from patent US9533023B2, “EIF4E binding peptides” (Agency for Science, Technology and Research, priority 2010, dated 2017).
Each block holds one molecule with its values, some of them ahead of it. Square brackets hold non-standard residues; d marks the D form. Ends that are not written are not given here. Ac5c = NC1(C(=O)O)CCCC1; Aib = CC(C)(N)C(=O)O

Legend:
eIF4E = biological target: T1, eIF4E (Homo sapiens, UniProt P06730); test: Fluorescence-based thermal stability (thermal shift) assay, FTS; assay type: binding; settings: for eIF4E binding / Tm effect in FTS assay: 10 μM eIF4E, 100 μM peptide
T1 construct: Full length human eIF4E was expressed and purified; made in house
T1 sequence (P06730 whole entry): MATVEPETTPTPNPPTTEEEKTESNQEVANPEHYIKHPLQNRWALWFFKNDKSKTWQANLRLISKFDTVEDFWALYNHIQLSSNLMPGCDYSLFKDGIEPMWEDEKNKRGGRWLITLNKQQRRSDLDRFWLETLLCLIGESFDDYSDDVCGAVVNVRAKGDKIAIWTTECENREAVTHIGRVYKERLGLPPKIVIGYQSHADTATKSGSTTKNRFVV
From the text: Full length human eIF4E was expressed and purified as described in Brown, C.
A fluorescence based thermal shift assay was used to screen and rank the rationally designed eIF4E binding derivative peptides. The fluorescent dye Sypro Red was used to monitor thermal denaturation of eIF4E. Binding of the dye molecule to eIF4E, as it unfolds due to thermal denaturation, results in a sharp increase in the fluorescence intensity. The midpoint of this transition is termed the Tm. The thermal shift assay was conducted in the iCycler Real Time Detection System (Bio-Rad, Hercules, Calif.). The system contains a heating/cooling device for accurate temperature control and a charge-coupled device (CCD) detector for simultaneous imaging of the fluorescence changes in the wells of the microplate. […] The final protein concentration was 10 μM. Protein samples were incubated with derivative peptides at a concentration of a 100 μM. The plate was heated from 20 to 90° C. with a heating rate of 1° C./min.
where Ft is the fluorescence intensity at temperature T; Tm is the midpoint temperature of the protein-unfolding transition, Fpre and Fpost are the pretransitional and posttransitional fluorescence intensities, respectively, R is the gas constant, ΔHu is the enthalpy of protein unfolding, and ΔCpu is the heat capacity change on protein unfolding. In the absence of ligand, Tm=T0, ΔCpu=ΔC^T0pu, and ΔHu=ΔH^T0u.
To calculate the ligand-binding affinity at Tm for the derivative eIF4E binding peptides, Eq. (2) was used:
To compare binding affinities for the derivative peptides to eIF4E calculated from the thermal shift data, the binding affinity at temperature T (KL(T))) must be calculated. KL(T) can be calculated from KL(Tm) using Eq. (3A): […]
where KL(T) is the ligand association constant at temperature T, and ΔHL(T) is the van't Hoff enthalpy of binding at temperature T. The value of ΔHL(T) was taken to be 5 kcal/mol.

[1] = tested on: MCF-7 5′UTR_MYC_Gaussia reporter cell line; test: Cap-dependent translation cell-based assay (Gaussia luciferase); settings: 6 hours
Experimental: To determine the efficacy of these peptides, a cell-based system to assay changes in cap-dependent translation was designed. […] A reporter line derived from the MCF-7 cell line that stably expresses the 5′UTR_MYC_Gaussia reporter was generated. The robustness of this model system was determined using rapamycin, which inhibits cap-dependent translation by inhibiting mTOR from phosphorylating 4EBPs.
MCF-7 (5′UTR_MYC_Gaussia) cells were cultured in DMEM with 10% FCS. Twenty thousand cells were then seeded per well in 48-wells plates in DMEM serum-free media overnight at 37° C. […] Cells were then cultured in media containing 10% FCS with Rapamycin for 24 hrs and at concentrations of 100 nM, 10 nM, 1 nM, 0.1 nM. Gaussia-Luc activities in cells were measured using Gaussia Luciferase Assay Kit (NEB) with SpectraMax M5 (molecular Devices).

[2] = tested on: endogenous c-myc in MCF-7 cells; test: Western blot of endogenous c-myc; assay type: cell-based; settings: 15 μM peptide, 6 hours, vs PBS
Experimental: MCF-7 cells were cultured in DMEM with 10% FCS. Three hundred fifty thousand MCF-7 cells were then seeded per well in 6-wells plates containing DMEM serum-free media overnight at 37° C. […] A mock PBS treatment was also included. Cells were harvested at 6 hrs and lysed in RIPA buffer. Protein concentration was determined using a Lowry Assay kit (Bio-rad). Samples were loaded at 30 ug and blotted against monoclonal antibody c-myc (Sigma Aldrich #M4439). B-actin was blotted for as a loading control.

MCF-7 cells = test: Annexin staining, flow cytometry; assay type: cell-based; settings: 30 μM, 48 hours
Experimental: MCF-7 cells were cultured in DMEM with 10% FCS. Two hundred fifty thousand cells were then seeded per well in 6-wells plates containing DMEM serum-free media overnight at 37° C. […] A mock PBS treatment was also included. Cells were harvested, washed in PBS and spun down at 200 g for 5 mins. Cell pellets were resuspended in Annexin-VFLUOS labeling solution from Roche and incubated for 10-15 min at 15-25° C. Cells were then analyzed using LSR II (BD).

[3] = tested on: MCF-7 (5′UTR_MYC_Gaussia) cells; test: WST-1 assay (cell viability); assay type: cell-based; settings: 30 μM, 48 hours after treatment
Experimental: MCF-7 (5′UTR_MYC_Gaussia) cells were cultured in DMEM with 10% FCS. Twenty thousand cells were then seeded per well in 48-wells plates in DMEM serum-free media overnight at 37° C. Before overnight incubation, cells were incubated at room temperature for 30 mins. […] After 48 hrs of treatment, MCF-7 cells were incubated with Cell Proliferation Reagent WST-1(Roche) for 30 mins at 37° C. Absorbances of cell media were then read at 450 nm with SpectraMax M5.

[4] = tested on: MCF-7 (5′UTR_MYC_Gaussia) cells; test: Propidium iodide staining and FACS analysis; assay type: cell-based; settings: 48 hrs
Experimental: MCF-7 (5′UTR_MYC_Gaussia) cells were cultured in DMEM with 10% FCS. Two hundred fifty thousand cells were then seeded per well in 6-wells plates containing DMEM serum-free media overnight at 37° C. Before overnight incubation, cells were incubated at room temperature for 30 mins. […] A 1% DMSO and a PBS mock treatment was also carried out. Cells were harvested and fixed in 65% ethanol in PBS and incubated at 4° C. for 2 hrs. Cells were spun down and resuspended with Propidium iodide staining solution containing Rnase A. Cells were analyzed using LSR II (BD).

eIF4E binding / Tm effect in FTS assay (eIF4E): abolished measurable peptide binding
Molecule: Tr2_AIB2: Tr2 peptide with E627 replaced by Aib (YDR[Aib]FLLGFQF)

eIF4E binding / Tm effect in FTS assay (eIF4E): all eIF4E binding is lost
Molecule: SEQ ID NO: 20: 11mer control peptide with the conserved tyrosine mutated to alanine (ADREFLLGFQF; Control) [reference compound]

Molecule: YGRKKRRQRRR [TAT, reference compound]
inhibition of cap-dependent translation (luciferase output) ([1]; TAT peptides, up to 100 μM): not inhibited by TAT alone with only a slight decrease at 100 μM | endogenous c-myc expression [2]: identical | annexin staining of cells (apoptosis) (MCF-7 cells): few cells that could be stained | eIF4E binding / Tm effect in FTS assay (eIF4E): no binding

eIF4E binding / Tm effect in FTS assay (eIF4E): increased the Tm
Molecule: Tr2_AIB3: Tr2 peptide with G631 replaced by Aib (YDREFLLXFQF; Aib at position 631; Tr2_AIB3)

Molecule: GT_eIF4G1: eIF4G1 14mer with N-terminal GT linker, no TAT (GTKKRYDREFLLGFQF; not fully specified (C-terminus))
luciferase activity, difference versus control peptide ([1]; 30 μM): no significant difference | WST-1 assay, difference versus control peptide [3]: not significant

drop in thermal shift from AC14 to AC13 (eIF4E; difference vs AC14): ~2.1 °C
Molecule: KRYDRE*LL5FQF [AC13]
inhibition of cap-dependent translation (luciferase output) ([1]; non-TAT peptides, 400 μM): noticeable drop in activity

eIF4E binding / Tm effect in FTS assay (eIF4E): significantly increased
Molecule: CC(C)C[C@H](NC(=O)[C@H](Cc1ccccc1)NC(=O)[C@H](CCC(=O)O)NC(=O)[C@H](CCCNC(=N)N)NC(=O)[C@H](CC(=O)O)NC(=O)[C@@H](N)Cc1ccc(O)cc1)C(=O)N[C@@H](CC(C)C)C(=O)NC1(C(=O)N[C@@H](Cc2ccccc2)C(=O)N[C@@H](CCC(N)=O)C(=O)N[C@@H](Cc2ccccc2)C(=O)O)CCCC1 [Tr2_AIB3_A5C, YDREFLL5FQF]

Molecule: SEQ ID NO: 29: Tr2_AIB3_A5C with alanine at position 625 (YAREFLL[Ac5c]FQF; not fully specified (C-terminus))
eIF4E binding / Tm effect in FTS assay (eIF4E): no significant increase or decrease in potency

Molecule: GTKKRYDRE*LL5FQF [GT_eIF4G1_me5]
inhibition of cap-dependent translation (luciferase output) ([1]; 100 μM and 200 μM): some biological activity in a dose responsive manner | inhibition of cap-dependent translation (luciferase output) ([1]; non-TAT peptides, 400 μM): significant decrease in luciferase output | cell cycle populations (sub G1, G1, S, G2), words ([4]; non TAT peptides 400 μM, vs DMSO control): significant increase in the sub G1 population | WST-1 assay, difference versus control peptide [3]: marginally significant

eIF4E binding / Tm effect in FTS assay (eIF4E): severely attenuated peptide binding
Molecule: Tr2_AIB1: Tr2 peptide with D625 replaced by aminoisobutyric acid (Aib) (Y[Aib]REFLLGFQF)

Molecule: SEQ ID NO: 31: Tr2_AIB3_A5C with alanine at position 627 (YDRAFLL[Ac5c]FQF; not fully specified (C-terminus))
eIF4E binding / Tm effect in FTS assay (eIF4E): no significant increase or decrease in potency

Molecule: TAT_eIF4G1_Cntrl: control peptide equivalent to TAT_eIF4G1 (YGRKKRRQRRRGTKKRADREFAAGFQF; TAT_eIF4G1_Cntrl)
cell cycle populations (sub G1, G1, S, G2), words ([4]; TAT fused peptides 30 μM, vs PBS mock): no substantive differences | endogenous c-myc expression [2]: identical | annexin staining of cells (apoptosis) (MCF-7 cells): few cells that could be stained

eIF4E binding / Tm effect in FTS assay (eIF4E): severely attenuated peptide binding
Molecule: Tr2_AIB4: Tr2 peptide with Q633 replaced by Aib (YDREFLLGF[Aib]F)
